Measurements as given in patent US4465772A, “Method for disinfecting and washing of immobilized lactase” (priority 1980, dated 1984).
Like-named read-outs stand apart in the source and are kept apart here.

Experiments:
[1] = test system: Mixture of five strains separated from the putrefied milk; assay: Disinfecting power (number of viable cells); type: cell-based; details: initial 10^5-10^6/ml
Protocol: (1) Disinfecting power (number of viable cells)
Milk obtained commercially was putrefied. Mixture of five strains separated from the putrefied milk was suspended in a 0.2 % bouillon solution (pH: 7.0) so that the number of viable cells attains to 10^5 -10^6 /ml. To this suspension was added an equal amount of an undiluted solution having a concentration of each chemical twice as high as that to be applied. A cotton plug was corked to each container and sampling was carried out after 1 hour and 7 days. The sample was diluted at need and plating on the standard agaragar culture medium was effected to count the number of colonies.
The symbols related to the number of viable cells designate as follows: […]

[2] = molecular target: T1, immobilized lactase (lactase derived from Aspergillus oryzae) (Aspergillus oryzae, UniProt Q2UCU3); assay: Residual enzyme activity of immobilized lactase after immersion in disinfectant solutions; type: biochemical; details: for remaining activity at 1 % / Residual enzyme activity (relative ratio, %) after immersion for 7 days / Residual enzyme activity (relative ratio, %) after immersion for 30 days / remaining activity at 0.1 % / remaining activity at 70 % / remaining activity at 0.01 %: 18°-20° C.; for remaining activity at 0.1 %: chemical 0.1%; for remaining activity at 70 %: chemical 70%; for remaining activity at 0.01 %: chemical 0.01%
T1 construct: host or cells: Aspergillus oryzae
T1 sequence (Q2UCU3 19-1005): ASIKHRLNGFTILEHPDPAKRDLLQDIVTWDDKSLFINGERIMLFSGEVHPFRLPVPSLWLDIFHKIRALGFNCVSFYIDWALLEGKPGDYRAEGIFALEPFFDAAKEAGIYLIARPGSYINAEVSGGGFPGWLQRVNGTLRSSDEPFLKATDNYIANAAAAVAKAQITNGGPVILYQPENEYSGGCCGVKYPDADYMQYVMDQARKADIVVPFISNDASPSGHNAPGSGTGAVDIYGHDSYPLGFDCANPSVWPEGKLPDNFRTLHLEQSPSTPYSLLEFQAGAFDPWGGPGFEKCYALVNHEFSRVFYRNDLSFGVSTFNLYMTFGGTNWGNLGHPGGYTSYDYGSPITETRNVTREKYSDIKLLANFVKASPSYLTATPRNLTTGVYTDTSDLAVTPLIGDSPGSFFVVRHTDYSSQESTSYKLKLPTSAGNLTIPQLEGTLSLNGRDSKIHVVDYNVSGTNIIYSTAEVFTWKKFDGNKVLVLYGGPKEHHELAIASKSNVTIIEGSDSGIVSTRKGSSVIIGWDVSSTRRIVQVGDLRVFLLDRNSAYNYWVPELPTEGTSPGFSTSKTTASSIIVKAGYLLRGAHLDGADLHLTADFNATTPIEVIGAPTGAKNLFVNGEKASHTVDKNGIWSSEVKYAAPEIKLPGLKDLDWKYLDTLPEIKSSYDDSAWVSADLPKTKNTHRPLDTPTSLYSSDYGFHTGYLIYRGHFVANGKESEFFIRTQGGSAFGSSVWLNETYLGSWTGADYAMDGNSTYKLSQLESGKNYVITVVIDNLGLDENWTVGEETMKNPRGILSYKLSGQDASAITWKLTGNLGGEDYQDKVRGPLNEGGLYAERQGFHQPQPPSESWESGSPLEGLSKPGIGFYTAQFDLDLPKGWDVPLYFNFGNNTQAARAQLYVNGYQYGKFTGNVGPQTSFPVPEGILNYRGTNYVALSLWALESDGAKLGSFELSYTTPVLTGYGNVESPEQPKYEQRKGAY
From the text: As the immobilized lactase was used one prepared by using a macroporous phenol-formaldehyde type amphoteric ion-exchange resin (particle size: 250-840μ) as the carrier, making the same adsorb the lactase derived from Aspergillus oryzae and carrying out the glutaraldehyde treatment to cause immobilization by covalent linkage [EPC publication No. 26672 (published on Apr. 8, 1981)].
(2) Residual enzyme activity
[…] […] The sample was sufficiently washed with an excessively large amount of water and a 0.05 M acetate buffer solution at pH 4.5 and then the residual activity was measured.
In 30 ml of lactose solution having a concentration of 13.3 (W/V) % prepared by dissolving lactose in a 0.05 M acetate buffer solution of pH 4.5 was immersed 0.2-0.25 ml of an immobilized lactase. The reaction was allowed to proceed at 30° C. under reciprocating shaking (more than 100 rpm with an amplitude larger than 3.5 cm) for 15 minutes. Then the amount of glucose produced was determined with a glucose oxidase-peroxidase-dye system. The amount of enzyme which produces 1μ mol of glucose per minute is defined as one unit (1 ILU). The dry weight of an immobilized lactase is determined as mentioned below. That is, after the termination of the reaction, the immobilized lactase was filtered, dried at 50° C. under reduced pressure for 8 hours or more, placed in a desiccator at room temperature (18°-25° C.) for 1.5 hours or more, the weight thereof was then measured and this value is regarded as the dry weight of the immobilized lactase. The activity of an immobilized lactase is represented by the unit per gram of dry weight (1 ILU/g-IML).

[3] = 168 h, chemical 1%, relative to 860 ILU/g-IML before immersion, read-out: Residual enzyme activity (relative ratio, %) after immersion for 7 days
[4] = 720 h, chemical 1%, relative to 860 ILU/g-IML before immersion, read-out: Residual enzyme activity (relative ratio, %) after immersion for 30 days
[5] = chemical 1%, relative to 860 ILU/g-IML before immersion
[6] = 168 h, relative to 860 ILU/g-IML, read-out: Residual enzyme activity (relative ratio, %) after immersion for 7 days
[7] = 720 h, relative to 860 ILU/g-IML, read-out: Residual enzyme activity (relative ratio, %) after immersion for 30 days
[8] = chemical 10%, relative to 860 ILU/g-IML
[9] = concentration of chemical 0.01%

Q: With `CC(O)C(=O)O` (stereo not shown) [Lactic acid] as the molecule, how does the “Number of viable cells after 1 hr.” value ([1]; concentration of chemical 1%) read?
A: The value was “⊖ to ⊕”.

Q: And the “Number of viable cells after 7 days” value ([1]; concentration of chemical 1%)?
A: Its value is “⊖”.

Q: And the “decrease of activity of immobilized lactase on immersion” value ([2]; 1% solution, five months at room temperature (18°-25° C.))?
A: Its value is “completely no decrease of activity”.

Q: What about the remaining activity at 1 % [2, 3] of the same molecule?
A: The remaining activity at 1 % was 103%.

Q: And the remaining activity at 1 % [2, 4]?
A: The remaining activity at 1 % was 101%.

Q: `OO` [35% H2 O2 solution, hydrogen peroxide] was tested. Which “Number of viable cells after 1 hr.” value ([1]; concentration of chemical 1%) did it give?
A: Its value is “⊖”.

Q: And the “Number of viable cells after 7 days” value ([1]; concentration of chemical 1%)?
A: The value was “⊖”.

Q: And the “Residual enzyme activity (relative ratio, %) after immersion for 7 days” value [2, 5]?
A: The value was 100%.

Q: And the “Residual enzyme activity (relative ratio, %) after immersion for 30 days” value [2, 5]?
A: The value was 98%.

Q: Which results are given for `C/C=C/C=C/C(=O)[O-].[K+]` [Potassium sorbate]?
A: Number of viable cells after 1 hr. ([1]; concentration of chemical 1%): ⊖; Number of viable cells after 7 days ([1]; concentration of chemical 1%): ⊖; remaining activity at 1 % [2, 3]: 103%; remaining activity at 1 % [2, 4]: 101%

Q: With `O=C(O)CC(O)C(=O)O` (stereo not shown) [Malic acid] as the molecule, how does the “Number of viable cells after 1 hr.” value ([1]; concentration of chemical 1%) read?
A: The value was “⊖”.

Q: And the “Number of viable cells after 7 days” value ([1]; concentration of chemical 1%)?
A: The value was “⊖”.

Q: And the remaining activity at 1 % [2, 3]?
A: The remaining activity at 1 % was 101%.

Q: What about the remaining activity at 1 % [2, 4] of the same molecule?
A: The remaining activity at 1 % was 100%.

Q: Which “Number of viable cells after 1 hr.” value ([1]; concentration of chemical 1%) does the source give for `O=CCCCC=O` [Glutaraldehyde] here?
A: The value was “⊖”.

Q: And the “Number of viable cells after 7 days” value ([1]; concentration of chemical 1%)?
A: The value was “⊖”.

Q: And the remaining activity at 1 % [2, 3]?
A: Its remaining activity at 1 % is 102%.

Q: And the remaining activity at 1 % [2, 4]?
A: Its remaining activity at 1 % is 98%.

Q: With `CC(=O)C1C(=O)C=C(C)OC1=O` (stereo not shown) [Dehydroacetic acid] as the molecule, how does the “Number of viable cells after 1 hr.” value ([1]; concentration of chemical 0.1%) read?
A: Its value is “⊖”.

Q: And the “Number of viable cells after 7 days” value ([1]; concentration of chemical 0.1%)?
A: Its value is “⊖”.

Q: And the remaining activity at 0.1 % [2, 6]?
A: Its remaining activity at 0.1 % is 98%.

Q: What about the remaining activity at 0.1 % [2, 7] of the same molecule?
A: Its remaining activity at 0.1 % is 102%.

Q: `[Cl-].[Na+]` [Sodium chloride] was tested. Which “Number of viable cells after 1 hr.” value ([1]; concentration of chemical 10%) did it give?
A: The value was “⊖ to ⊕”.

Q: What about the “Number of viable cells after 7 days” value ([1]; concentration of chemical 10%) of the same molecule?
A: Its value is “⊖”.

Q: What about the “Residual enzyme activity (relative ratio, %) after immersion for 7 days” value [2, 8] of the same molecule?
A: The value was 100%.

Q: What about the “Residual enzyme activity (relative ratio, %) after immersion for 30 days” value [2, 8] of the same molecule?
A: Its value is 98%.

Q: With `CCO` [Ethyl alcohol] as the molecule, how does the “Number of viable cells after 1 hr.” value ([1]; concentration of chemical 70%) read?
A: Its value is “⊖”.

Q: And the “Number of viable cells after 7 days” value ([1]; concentration of chemical 70%)?
A: The value was “⊖”.

Q: And the “decrease of activity of immobilized lactase on immersion” value ([2]; 70% solution, immersed for a long period at 18°-20° C.)?
A: The value was “decrease of activity to some extent”.

Q: What about the remaining activity at 70 % [2, 6] of the same molecule?
A: The remaining activity at 70 % was 84%.

Q: And the remaining activity at 70 % [2, 7]?
A: The remaining activity at 70 % was 67%.

Q: What does the source list for `OCl` [Sodium hypochlorite]?
A: Number of viable cells after 1 hr. [1, 9]: ⊖; Number of viable cells after 7 days [1, 9]: ⊖; decrease of activity of immobilized lactase on immersion ([2]; 0.01% solution, immersed for a long period at 18°-20° C.): decrease of activity to some extent; remaining activity at 0.01 % [2, 6]: 96%; remaining activity at 0.01 % [2, 7]: 92%

Q: For `CC(=O)O` [Acetic acid], which “Number of viable cells after 1 hr.” value ([1]; concentration of chemical 1%) is on record?
A: Its value is “⊖”.

Q: What about the “Number of viable cells after 7 days” value ([1]; concentration of chemical 1%) of the same molecule?
A: Its value is “⊖”.

Q: What about the remaining activity at 1 % [2, 3] of the same molecule?
A: Its remaining activity at 1 % is 102%.

Q: What about the remaining activity at 1 % [2, 4] of the same molecule?
A: Its remaining activity at 1 % is 100%.
